{"source": "patent US20100249172A1", "about": "“9-CHLORO NOSCAPINE AND ITS USE IN TREATING CANCERS, INCLUDING DRUG-RESISTANT CANCERS” (EMORY UNIVERSITY, priority 2007, published 2010)", "key": {"CEM cells": {"tested_on": "CEM cells", "assay": "MTS cell proliferation assay", "type": "cell-based, human", "method": "(§1) Suspension cells (CEM) were seeded into 96-well plates at a density of 5×10^3 cells per well and were treated with increasing concentrations of all halogenated analogs for 72 hours. Measurement of cell proliferation was performed colorimetrically by 3-(4,5-dimethylthiazol-2-yl)-5-(3-carboxymethoxyphenyl)-2-(4-sulphophenyl)-2H-tetrazolium, inner salt (MTS) assay, using the CellTiter96 AQueous One Solution Reagent (Promega, Madison, Wis.). Cells were exposed to MTS for 3 hours and absorbance was measured using a microplate reader (Molecular Devices, Sunnyvale, Calif.) at an optical density (OD) of 490 nm. The percentage of cell survival as a function of drug concentration for both the assays was then plotted to determine the IC50 value, which stands for the drug concentration needed to prevent cell proliferation by 50%.\nHaving identified tubulin as the target molecule, the pharmacological study was extended at the cellular level to determine if all the halogenated analogs affected cancer cell proliferation. As a preliminary screen, 9-chloro-nos and noscapine were evaluated for their antiproliferative activity in three human cancer cell lines; human breast adenocarcinoma cells (estrogen- and progesterone-receptor positive, MCF-7 and estrogen- and progesterone-receptor negative, MDA-MB-231) and human lymphoblastoid cells CEM. […]"}, "caspase-3": {"tested_on": "caspase-3", "assay": "Apoptotic mechanism in cancer cells", "type": "cell-based"}, "MCF-7 cells [1]": {"tested_on": "MCF-7 cells", "assay": "Sulforhodamine B (SRB) cell proliferation assay", "type": "cell-based", "settings": "Homo sapiens, MCF7, MCF-7, 72 hours drug treatment", "method": "(§2) Sulforhodamine B (SRB) assay: The cell proliferation assay was performed in 96-well plates as described previously. Adherent cells (MCF-7 and MDA-MB-231) were seeded in 96-well plates at a density of 5×10^3 cells per well. They were treated with increasing concentrations of the halogenated analogs the next day while in log-phase growth. After 72 hours of drug treatment, cells were fixed with 50% trichloroacetic acid and stained with 0.4% sulforhodamine B dissolved in 1% acetic acid. After 30 minutes, cells were then washed with 1% acetic acid to remove the unbound dye. The protein-bound dye was extracted with 10 mM Tris base to determine the optical density at 564-nm wavelength.\nas §1, with “The percentage of cell survival as a function of drug concentration for both the assays was then plotted to determine the IC50 value, which stands for the drug concentration needed to prevent cell proliferation by 50%.” left out"}, "MDA-MB-231 cells [2]": {"tested_on": "MDA-MB-231 cells", "assay": "Sulforhodamine B (SRB) cell proliferation assay", "type": "cell-based", "settings": "Homo sapiens, MDA-MB-231, 72 hours drug treatment", "method": "as §2\nas §1, with “The percentage of cell survival as a function of drug concentration for both the assays was then plotted to determine the IC50 value, which stands for the drug concentration needed to prevent cell proliferation by 50%.” left out"}, "MCF-7 cells [3]": {"tested_on": "MCF-7 cells", "assay": "Cell cycle analysis by flow cytometry (propidium iodide)", "type": "cell-based, human", "settings": "for G0/G1 % / G2/M % / S % / Sub-G1 %: mean ± S.E.M.", "method": "The flow cytometric evaluation of the cell cycle status was performed as described previously. Briefly, 2×10^6 cells were centrifuged, washed twice with ice-cold PBS, and fixed in 70% ethanol. Tubes containing the cell pellets were stored at 4° C. for at least 24 hours. Cells were then centrifuged at 1000×g for 10 min and the supernatant was discarded. The pellets were washed twice with 5 ml of PBS and then stained with 0.5 ml of propidium iodide (0.1% in 0.6% Triton-X in PBS) and 0.5 ml of RNase A (2 mg/ml) for 45 minutes in dark. Samples were then analyzed on a FACSCalibur flow cytometer (Beckman Coulter Inc., Fullerton, Calif.).\nTo investigate the precise mechanisms of cell death, the effect of 9-cloro-noscapine and other halogenated noscapine analogs on percent G2/M cells (mitotic index) and percent sub-G1 cells (apoptotic index) was examined as a function of dose and time in MCF-7 cells using fluorescence activated cell sorting (FACS) analysis. The effect of all compounds including noscapine was evaluated at three doses-5 μM, 10 μM and 25 μM for 0, 24, 48 and 72 hours of drug treatment. […] Fluorescently labeled DNA is a good indicator of cell cycle progression and cell death. An unreplicated complement of diploid (2N) DNA cells represents the G1 phase while duplicated tetraploid (4N) DNA cells represent G2 and M phases. Cells in the process of DNA duplication between diploid and tetraploid peaks represent S phase when DNA is being synthesized. Less than diploid DNA appears in populations of dying cells that degrade their DNA to different extents. Treatment of MCF-7 cells with these compounds for 0, 24, 48 and 72 hours led to profound perturbations of the cell cycle profile at 25 μM (FIGS. 3 A-D). […] The distribution of cell population over G0/G1, S, G2/M and sub-G1 phases of the cell cycle for 25 μM concentration is shown in Table 1."}, "MDA-MB-231 cells [4]": {"tested_on": "MDA-MB-231 cells", "assay": "DAPI staining, cell morphology by fluorescence microscopy", "type": "cell-based, human", "settings": "25 μM, 72 hours", "method": "FIG. 2 is a series of photographs showing the effect of 9-chloro-nos on the morphology of cancer cells. Morphologic criteria for apoptotic cell death include, for example, chromatin condensation with aggregation along the nuclear envelope and plasma membrane blebbing followed by separation into small, apoptotic bodies. Panels show morphological evaluation of nuclei stained with DAPI from control cells (upper panels) and cells treated with 25 μM concentration of 9-Cl-nos for 72 hours (lower panels) using fluorescence microscopy. […] (Scale bar=15 μm).\nCell morphology was evaluated by fluorescence microscopy following DAPI staining (Vectashield, Vector Labs, Inc., Burlingame, Calif.). MDA-MB-231 cells were grown on poly-L-lysine coated coverslips in 6-well plates and were treated with the halogenated analogs at 25 μM for 72 hours. After incubation, coverslips were fixed in cold methanol and washed with PBS, stained with DAPI, and mounted on slides. Images were captured using a BX60 microscope (Olympus, Tokyo, Japan) with an 8-bit camera (Dage-MTI, Michigan City, Ind.) and IP Lab software (Scanalytics, Fairfax, Va.). Apoptotic cells were identified by features characteristic of apoptosis (e.g. nuclear condensation, formation of membrane blebs and apoptotic bodies)."}}, "data": [{"smiles": "COc1ccc2c(c1OC)C(=O)O[C@@H]2[C@H]1c2c(c(Cl)c3c(c2OC)OCO3)CCN1C", "note": "[9-Cl-nos, (S)-3-((R)-9-chloro-4-methoxy-6-methyl-5,6,7,8-tetrahydro-[1,3]dioxolo[4,5-g]isoquinolin-5-yl)-6,7-dimethoxyisobenzofuran-1(3H)-one]", "values": [{"measurement": "inhibition of cell proliferation (in words)", "setting": "CEM cells", "value": "effectively inhibits cell proliferation"}, {"measurement": "IC50", "setting": "CEM cells; Homo sapiens, CCRF-CEM, 72 hours", "value": "1200 ± 300", "unit": "nM"}, {"measurement": "caspase-3 activation", "setting": "caspase-3", "value": "associated with activation of the key executioner cysteine protease, caspase-3"}, {"measurement": "IC50", "setting": "MCF-7 cells [1]", "value": "1900 ± 300", "unit": "nM"}, {"measurement": "IC50", "setting": "MDA-MB-231 cells [2]", "value": "3500 ± 400", "unit": "nM"}, {"measurement": "G0/G1 %", "setting": "MCF-7 cells [3]; 25 μM, 0 h", "value": "69 ± 5.6", "unit": "%"}, {"measurement": "G2/M %", "setting": "MCF-7 cells [3]; 25 μM, 0 h", "value": "20.7 ± 3.4", "unit": "%"}, {"measurement": "S %", "setting": "MCF-7 cells [3]; 25 μM, 0 h", "value": "7.5 ± 1.6", "unit": "%"}, {"measurement": "Sub-G1 %", "setting": "MCF-7 cells [3]; 25 μM, 0 h", "value": "1.4 ± 0.5", "unit": "%"}, {"measurement": "G0/G1 %", "setting": "MCF-7 cells [3]; 25 μM, 24 h", "value": "11.5 ± 2.7", "unit": "%"}, {"measurement": "G2/M %", "setting": "MCF-7 cells [3]; 25 μM, 24 h", "value": "59.7 ± 5.2", "unit": "%"}, {"measurement": "S %", "setting": "MCF-7 cells [3]; 25 μM, 24 h", "value": "4.3 ± 1.4", "unit": "%"}, {"measurement": "Sub-G1 %", "setting": "MCF-7 cells [3]; 25 μM, 24 h", "value": "15.3 ± 2.5", "unit": "%"}, {"measurement": "accumulation of cells in the G2/M phase (in words)", "setting": "MCF-7 cells [3]; 25 μM, 24 hours", "value": "massive accumulation of cells in the G2/M phase"}, {"measurement": "G0/G1 %", "setting": "MCF-7 cells [3]; 25 μM, 48 h", "value": "8 ± 3.3", "unit": "%"}, {"measurement": "G2/M %", "setting": "MCF-7 cells [3]; 25 μM, 48 h", "value": "42.4 ± 3.8", "unit": "%"}, {"measurement": "S %", "setting": "MCF-7 cells [3]; 25 μM, 48 h", "value": "4 ± 1.1", "unit": "%"}, {"measurement": "Sub-G1 %", "setting": "MCF-7 cells [3]; 25 μM, 48 h", "value": "37.8 ± 3.2", "unit": "%"}, {"measurement": "G0/G1 %", "setting": "MCF-7 cells [3]; 25 μM, 72 h", "value": "5.9 ± 1.9", "unit": "%"}, {"measurement": "G2/M %", "setting": "MCF-7 cells [3]; 25 μM, 72 h", "value": "35.3 ± 3.9", "unit": "%"}, {"measurement": "S %", "setting": "MCF-7 cells [3]; 25 μM, 72 h", "value": "4.1 ± 1.4", "unit": "%"}, {"measurement": "Sub-G1 %", "setting": "MCF-7 cells [3]; 25 μM, 72 h", "value": "50.2 ± 2.5", "unit": "%"}, {"measurement": "percent sub-G1 cells compared with noscapine", "setting": "MCF-7 cells [3]; lower doses (5 μM and 10 μM), 72 hours", "value": "higher"}, {"measurement": "nuclear morphology, features of apoptotic cells", "setting": "MDA-MB-231 cells [4]", "value": "condensed chromosomes, numerous fragmented micronuclei, and apoptotic bodies are evident"}]}]}
